The record followed here is ChEMBL document CHEMBL4739716, “Gpr139 receptor modulators” (2020).

Assay [1] concerns the target T1, Probable G-protein coupled receptor 139 (Rattus norvegicus) (UniProt P0C0W8).
T1 sequence (whole entry): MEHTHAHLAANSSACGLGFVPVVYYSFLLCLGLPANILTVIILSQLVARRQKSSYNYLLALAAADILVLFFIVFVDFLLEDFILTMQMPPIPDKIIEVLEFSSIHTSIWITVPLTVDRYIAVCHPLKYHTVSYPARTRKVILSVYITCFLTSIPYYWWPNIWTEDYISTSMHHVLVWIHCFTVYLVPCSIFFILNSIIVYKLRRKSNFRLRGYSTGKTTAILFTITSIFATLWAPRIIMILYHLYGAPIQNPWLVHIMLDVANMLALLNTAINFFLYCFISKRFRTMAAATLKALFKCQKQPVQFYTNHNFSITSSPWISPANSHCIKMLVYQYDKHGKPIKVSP
Nature of the assay: Agonist activity at rat GPR139 expressed in CHO-K1 cells assessed as increase in calcium flux by calcium 5 dye based FLIPR assay relative to JNJ63533054. Type of assay: cell-based. (In general: A change in cytosolic calcium serves as a functional read-out for many receptors and channels.)

Assay [2] deals with T2, Probable G-protein coupled receptor 139 (Homo sapiens, UniProt Q6DWJ6).
T2 sequence (Q6DWJ6 whole entry): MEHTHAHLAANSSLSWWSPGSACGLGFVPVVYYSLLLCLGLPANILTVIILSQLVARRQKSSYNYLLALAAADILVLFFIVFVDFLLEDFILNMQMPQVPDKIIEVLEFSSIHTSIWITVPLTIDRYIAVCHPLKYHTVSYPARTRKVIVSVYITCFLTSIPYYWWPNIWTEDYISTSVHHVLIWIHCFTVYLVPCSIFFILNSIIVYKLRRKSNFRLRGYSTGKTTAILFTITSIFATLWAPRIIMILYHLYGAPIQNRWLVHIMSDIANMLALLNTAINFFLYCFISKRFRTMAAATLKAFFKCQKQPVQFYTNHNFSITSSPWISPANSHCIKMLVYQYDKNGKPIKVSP
Nature of the assay: Agonist activity at human GPR139 expressed in CHO-K1 cells assessed as induction of beta-arrestin 2 recruitment incubated for 90 mins by PathHunter assay. The assay is classed as cell-based.

The target of assay [3] is T3, Probable G-protein coupled receptor 139 (Homo sapiens) (UniProt Q6DWJ6).
T3 sequence (whole entry): T2 sequence (Q6DWJ6 whole entry)
Nature of the assay: Agonist activity at human GPR139 expressed in CHO-K1 cells assessed as induction of beta-arrestin 2 recruitment incubated for 90 mins by PathHunter assay relative to JNJ63533054. Type of assay: cell-based. (In general: Recruitment of arrestin is a read-out of receptor activation apart from second messengers.)

The target in assay [4] is T3, Probable G-protein coupled receptor 139 (Homo sapiens). Briefly: Agonist activity at human GPR139 expressed in CHO-K1 cells assessed as increase in calcium flux by calcium 5 dye based FLIPR assay relative to JNJ63533054. The assay is classed as functional, cell-based. The settings on record: filed as agonist.
The target in assay [5] is T2, Probable G-protein coupled receptor 139. Briefly: Agonist activity at human GPR139 expressed in CHO-K1 cells assessed as increase in calcium flux by calcium 5 dye based FLIPR assay. Type of assay: functional, cell-based.
The target of assay [6] is T4, Probable G-protein coupled receptor 139 (Rattus norvegicus, UniProt P0C0W8).
T4 sequence (P0C0W8 whole entry): T1 sequence (whole entry)
Briefly: Agonist activity at rat GPR139 expressed in CHO-K1 cells assessed as increase in calcium flux by calcium 5 dye based FLIPR assay. Type of assay: cell-based.

Structures are written as SMILES. Some results are limits rather than exact numbers.

As for `Cc1ccc([C@H](C)NC(=O)Cn2nc3cccnn3c2=O)cc1`, the Emax (usually the maximal effect, on the per cent scale that the assay sets) in assay [1] (filed as agonist) is 50%; in assay [3], 25%; in assay [4] it was above 80%. Further, the half-maximal effective concentration (EC50) (commonly the concentration giving half of the maximal effect) in assay [2] is at least 100 nM; in assay [5] (cho-k1), 10 nM; in assay [6] (cho-k1) it was 1 nM.
As for `C[C@H](NC(=O)Cn1nc2c(NC3COC3)ccnn2c1=O)c1ccc(OC(F)(F)F)cc1`, the Emax in assay [1] (filed as agonist) was 50%; in assay [3], 25%; in assay [4] it was above 80%. Also, the values for the EC50 in assay [2], in assay [5] (cho-k1) and in assay [6] were at least 100 nM, 1 nM and at least 100 nM, respectively.
Consider `COc1ccn2c(=O)n(CC(=O)N[C@@H](C)c3ccc(Cl)c(F)c3)nc2n1`, for which the Emax in assay [1] (filed as agonist), in assay [3] (filed as agonist) and in assay [4] was above 80% in each case. The EC50 in assay [2] (cho-k1) was 1 nM; in assay [5], below 1 nM; in assay [6] it was below 1 nM.
For `C[C@H](NC(=O)Cn1nc2cc(OC3CN(C)C3)ccn2c1=O)c1ccc(OC(F)(F)F)cc1`, the Emax in assay [1] (filed as agonist) is 50%; in assay [3] (filed as agonist), above 80%; in assay [4], 50%. Moreover, the EC50 was at least 100 nM in assay [2], 10 nM in assay [5] (cho-k1) and at least 100 nM in assay [6].
For the compound `C[C@H](NC(=O)Cn1nc2cccnn2c1=O)c1ccc(Cl)c(F)c1`, the Emax in assay [1] (filed as agonist) is above 80%; in assay [3] (filed as agonist) it was 50%; in assay [4], above 80%. Besides, the EC50 in assay [2] (cho-k1) came to 10 nM; in assay [5] (cho-k1) it was 1 nM; in assay [6] (cho-k1) it was 1 nM.
Turning to `Cc1ccc([C@H](C)NC(=O)Cn2nc3ncccn3c2=O)cc1F`, the values for the maximal effect (Emax) in assay [1] (filed as agonist), in assay [3] (filed as agonist) and in assay [4] were 50%, 50% and above 80%, respectively. Further, the EC50 in assay [2] (cho-k1) was determined as 10 nM; in assay [5] (cho-k1), 1 nM; in assay [6] (cho-k1), 1 nM.
Take `C[C@H](NC(=O)Cn1nc2c(N3CCC34CNC4)cccn2c1=O)c1ccc(Cl)c(F)c1`: the maximum response (Emax) in assay [1] (filed as agonist) was above 80%; in assay [3] it was 25%; in assay [4] it was above 80%. Besides, the EC50 in assay [2] is at least 100 nM; in assay [5] (cho-k1), 1 nM; in assay [6] (cho-k1) it was 10 nM.
As for `COc1ccc2nn(CC(=O)N[C@@H](C)c3ccc(Cl)c(F)c3)c(=O)n2n1`, the Emax in assay [1] (filed as agonist) was 50%; in assay [3] (filed as agonist) it was 50%; in assay [4], above 80%. Besides, the concentration for a half-maximal effect (EC50) in assay [2] is below 1 nM; in assay [5], below 1 nM; in assay [6] (cho-k1), 1 nM.
Turning to `C[C@H](NC(=O)Cn1nc2cc(N3CCOCC3)ccn2c1=O)c1ccc(OC(F)(F)F)cc1`, the Emax in assay [1] (filed as agonist) is above 80%; in assay [3] (filed as agonist), 50%; in assay [4] it was above 80%. The values for the EC50 in assay [2], in assay [5] (cho-k1) and in assay [6] (cho-k1) were at least 100 nM, 1 nM and 1 nM, respectively.
Regarding `C[C@H](NC(=O)Cn1nc2cc(N3CCC(O)CC3)ccn2c1=O)c1ccc(OC(F)(F)F)cc1`, the Emax is above 80% in assay [1] (filed as agonist), 25% in assay [3] and above 80% in assay [4]. The EC50 in assay [2] is at least 100 nM; in assay [5] (cho-k1), 1 nM; in assay [6] (cho-k1), 1 nM.
On to `Cc1cc(Cl)ccc1[C@H](C)NC(=O)Cn1nc2cccnn2c1=O`, for which the Emax is 50% in assay [1] (filed as agonist), 50% in assay [3] (filed as agonist) and above 80% in assay [4]. The values for the half-maximal effective concentration (EC50) in assay [2], in assay [5] (cho-k1) and in assay [6] (cho-k1) were at least 100 nM, 1 nM and 1 nM, respectively.
Turning to `Cc1ccc2nn(CC(=O)N[C@@H](C)c3ccc(Cl)cc3)c(=O)n2n1`, the results for the maximum response (Emax) in assay [1] (filed as agonist), in assay [3] and in assay [4] were 50%, 25% and above 80%, respectively. For the same compound, the EC50 in assay [2] (cho-k1), in assay [5] (cho-k1) and in assay [6] (cho-k1) was 1 nM each time.
On to `Cc1ccc([C@H](C)NC(=O)Cn2nc3cccnn3c2=O)cc1Cl`, for which the values for the maximal response (Emax) in assay [1] (filed as agonist), in assay [3] (filed as agonist) and in assay [4] were 50%, above 80% and above 80%, respectively. For the same compound, the EC50 is at least 100 nM in assay [2], 1 nM in assay [5] (cho-k1) and 1 nM in assay [6] (cho-k1).
On to `C[C@H](NC(=O)Cn1nc2cc(-c3ccccc3)ccn2c1=O)c1ccc(Cl)c(F)c1`, for which the Emax in assay [1] (filed as agonist), in assay [3] (filed as agonist) and in assay [4] was above 80% in each case. Further, the EC50 in assay [2], in assay [5] and in assay [6] was below 1 nM throughout.
`C[C@H](NC(=O)Cn1nc2ccccn2c1=O)c1cnc(C(F)(F)F)nc1`: the Emax was below 25% in assay [1], 25% in assay [3] and 50% in assay [4]. The EC50 in assay [2], in assay [5] and in assay [6] was at least 100 nM each time.
As for `COc1ccn2c(=O)n(CC(=O)N[C@@H](C)c3c(C)cc(C)cc3C)nc2c1`, the maximal effect (Emax) worked out at 25% in assay [1], 25% in assay [3] and 50% in assay [4]. Further, the EC50 was 10 nM in assay [2] (cho-k1), at least 100 nM in assay [5] and 10 nM in assay [6] (cho-k1).
`Cc1cc(Cl)ccc1[C@H](C)NC(=O)Cn1nc2ncccn2c1=O`: the Emax in assay [1] was 25%; in assay [3] (filed as agonist), 50%; in assay [4], above 80%. The results for the EC50 in assay [2], in assay [5] (cho-k1) and in assay [6] were at least 100 nM, 1 nM and at least 100 nM, respectively.
`C[C@H](NC(=O)Cn1nc2ncccn2c1=O)c1ccc(OC(F)(F)F)c(F)c1`: the maximal response (Emax) is below 25% in assay [1], 25% in assay [3] (filed as agonist) and above 80% in assay [4]. The values for the EC50 in assay [2], in assay [5] (cho-k1) and in assay [6] were at least 100 nM, 1 nM and at least 100 nM, respectively.
On to `C[C@H](NC(=O)Cn1nc2c(N3CCOCC3)cccn2c1=O)c1ccc(Cl)c(F)c1`, for which the Emax in assay [1] (filed as agonist) is 50%; in assay [3] (filed as agonist), 50%; in assay [4], above 80%. For the same compound, the EC50 is 10 nM in assay [2] (cho-k1), below 1 nM in assay [5] and below 1 nM in assay [6].
Regarding `C[C@H](NC(=O)Cn1nc2ncccn2c1=O)c1ccc(C2CC2)c(F)c1`, the figures for the maximal response (Emax) in assay [1], in assay [3] (filed as agonist) and in assay [4] were 25%, 50% and above 80%, respectively. The figures for the EC50 in assay [2], in assay [5] (cho-k1) and in assay [6] (cho-k1) were at least 100 nM, 1 nM and 10 nM, respectively.
As for `Cc1ccn2c(=O)n(CC(=O)N[C@@H](C)c3ccc(OC(F)(F)F)cc3)nc2c1`, the Emax was 50% in assay [1] (filed as agonist), above 80% in assay [3] (filed as agonist) and above 80% in assay [4]. The EC50 in assay [2] (cho-k1) is 1 nM; in assay [5], below 1 nM; in assay [6], below 1 nM.
`C[C@H](NC(=O)Cn1nc2cc(N3CCC[C@@H](O)C3)ccn2c1=O)c1ccc(OC(F)(F)F)cc1`: the maximum response (Emax) in assay [1] (filed as agonist), in assay [3] (filed as agonist) and in assay [4] was above 80% each time. Moreover, the EC50 in assay [2] is at least 100 nM; in assay [5] (cho-k1), 1 nM; in assay [6] (cho-k1) it was 1 nM.
In the case of `Cc1ccc([C@H](C)NC(=O)Cn2nc3ccc(F)cn3c2=O)cc1`, the results for the Emax in assay [1] (filed as agonist), in assay [3] (filed as agonist) and in assay [4] were above 80%, 50% and above 80%, respectively. The EC50 in assay [2] (cho-k1) is 10 nM; in assay [5] it was below 1 nM; in assay [6], below 1 nM.
In the case of `Cc1ccnc2nn(CC(=O)N[C@@H](C)c3ccc(Cl)c(F)c3)c(=O)n12`, the Emax in assay [1] (filed as agonist) was 50%; in assay [3] (filed as agonist), 50%; in assay [4], above 80%. Besides, the values for the EC50 in assay [2] (cho-k1), in assay [5] and in assay [6] (cho-k1) were 1 nM, below 1 nM and 10 nM, respectively.
With `C[C@H](NC(=O)Cn1nc2ccccn2c1=O)c1ccc(F)cc1`, the Emax in assay [1] is 25%; in assay [3], below 25%; in assay [4], 50%. Also, the EC50 was at least 100 nM in assay [2], 10 nM in assay [5] (cho-k1) and at least 100 nM in assay [6].
As for `C[C@H](NC(=O)Cn1nc2c(N3CCOCC3)ccnn2c1=O)c1ccc(Cl)c(F)c1`, the EC50 is at least 100 nM in assay [2] and below 1 nM in assay [5]. The Emax in assay [3] (filed as agonist) and in assay [4] was above 80% each time.
Regarding `C[C@H](NC(=O)Cn1nc2ccc(C3CC3)nn2c1=O)c1ccc(Cl)c(F)c1`, the concentration for a half-maximal effect (EC50) in assay [2] (cho-k1) was 1 nM; in assay [5] it was below 1 nM. The Emax is 50% in assay [3] (filed as agonist) and above 80% in assay [4].
For `O=C(Cn1nc2cccnn2c1=O)N[C@H](c1ccc(Cl)c(F)c1)C1CC1`, the EC50 is at least 100 nM in assay [2] and 1 nM in assay [5] (cho-k1). Moreover, the Emax is below 25% in assay [3] and 50% in assay [4].
